Reference: PubChem BioAssay (NCI)
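GI50 = concentration required for 50% inhibition of growth. Definition used: TGI = concentration required for complete inhibition of growth.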

What was measured:
Assay in all cases: NCI tumour cell line growth inhibition, 384-well format
[1] = system: KM12 colon
[2] = system: MCF7 breast
[3] = system: ACHN renal
[4] = system: 786-0 renal
[5] = system: HOP-62 NSCLC
[6] = system: SF-268 CNS
[7] = system: SK-OV-3 ovarian
[8] = system: UACC-62 melanoma
[9] = system: PC-3 prostate
[10] = system: LOX IMVI melanoma
[11] = system: SNB-19 CNS
[12] = system: HOP-92 NSCLC
[13] = system: HCC-2998 colon
[14] = system: T-47D breast
[15] = system: MOLT-4 leukemia
[16] = system: OVCAR-3 ovarian
[17] = system: SF-539 CNS
[18] = system: COLO 205 colon
[19] = system: M14 melanoma
[20] = system: TK-10 renal
[21] = system: MALME-3M melanoma
[22] = system: EKVX NSCLC
[23] = system: HS 578T breast
[24] = system: UACC-257 melanoma
[25] = system: NCI-H322M lung
[26] = system: HCT-15 colon
[27] = system: SW-620 colon
[28] = system: SF-295 CNS
[29] = system: OVCAR-5 ovarian
[30] = system: SR leukemia
[31] = system: BT-549 breast
[32] = system: NCI-H460 NSCLC
[33] = system: NCI-H522 lung
[34] = system: K-562 leukemia
[35] = system: CAKI-1 renal
[36] = system: DU-145 prostate
[37] = system: A498 renal
[38] = system: SNB-75 CNS
[39] = system: OVCAR-8 ovarian
[40] = system: RPMI-8226 leukemia
[41] = system: SK-MEL-5 melanoma
[42] = system: A549 NSCLC
[43] = system: OVCAR-4 ovarian
[44] = system: RXF 393 renal
[45] = system: NCI-H23 lung
[46] = system: HT29 colon
[47] = system: NCI-H226 lung
[48] = system: MDA-MB-468 breast
[49] = system: HL-60(TB) leukemia
[50] = system: SK-MEL-28 melanoma
[51] = system: NCI/ADR-RES ovarian
[52] = system: SN12C renal
[53] = system: MDA-MB-435 melanoma
[54] = system: MDA-MB-231 breast
[55] = system: UO-31 renal
[56] = system: CCRF-CEM leukemia
[57] = system: IGROV1 ovarian

## C[C@@H](CO)NC(=O)c1cc(-c2ccc(Cl)cc2)nn(-c2cnn(C)c2)c1=O
[1]
  GI50: 35.2 µM
  TGI: > 100 µM
[2]
  GI50: 15.8 µM
  TGI: 29.4 µM
[3]
  GI50: 15.5 µM
  TGI: 35.4 µM
[4]
  GI50: 17.1 µM
  TGI: 61.3 µM
[5]
  GI50: 17 µM
  TGI: 40 µM
[6]
  GI50: 22.6 µM
  TGI: 70.7 µM
[7]
  GI50: 27.3 µM
  TGI: 72.7 µM
[8]
  GI50: 11.5 µM
  TGI: 23.7 µM
[9]
  GI50: 24.4 µM
  TGI: 62.7 µM
[10]
  GI50: 17.1 µM
  TGI: 30.9 µM
[11]
  GI50: 27.8 µM
  TGI: 88.5 µM
[12]
  GI50: 10.2 µM
  TGI: 43.7 µM
[13]
  GI50: 23.5 µM
  TGI: 53.4 µM
[14]
  GI50: 26.9 µM
  TGI: 67.9 µM
[15]
  GI50: 1.87 µM
  TGI: 3.63 µM
[16]
  GI50: 22.6 µM
  TGI: 50.7 µM
[17]
  GI50: 19.4 µM
  TGI: 51.7 µM
[18]
  GI50: 23.7 µM
  TGI: 87.2 µM
[19]
  GI50: 27.1 µM
  TGI: 60.5 µM
[20]
  GI50: 16.7 µM
  TGI: 63.3 µM
[21]
  GI50: 13.4 µM
  TGI: 34.1 µM
[22]
  GI50: 27.3 µM
  TGI: 77.9 µM
[23]
  GI50: 17.2 µM
  TGI: 36.9 µM
[24]
  GI50: 24.9 µM
  TGI: 40.1 µM
[25]
  GI50: 23.5 µM
  TGI: 64 µM
[26]
  GI50: 27.1 µM
  TGI: > 100 µM
[27]
  GI50: 38.8 µM
  TGI: > 100 µM
[28]
  GI50: 18.5 µM
  TGI: 41.2 µM
[29]
  GI50: 32.2 µM
  TGI: > 100 µM
[30]
  GI50: 10.7 µM
  TGI: 22.7 µM
[31]
  GI50: 16.1 µM
  TGI: 33.8 µM
[32]
  GI50: 13.8 µM
  TGI: 33.4 µM
[33]
  GI50: 16.9 µM
  TGI: 31.2 µM
[34]
  GI50: 18.5 µM
  TGI: 34.3 µM
[35]
  GI50: 17.7 µM
  TGI: 49.2 µM
[36]
  GI50: 16.9 µM
  TGI: 36 µM
[37]
  GI50: 14.4 µM
  TGI: 28.7 µM
[38]
  GI50: 25.8 µM
  TGI: 93.1 µM
[39]
  GI50: 23.7 µM
  TGI: 95.9 µM
[40]
  GI50: 13.8 µM
  TGI: 27 µM
[41]
  GI50: 12.6 µM
  TGI: 25.3 µM
[42]
  GI50: 17.7 µM
  TGI: 37.5 µM
[43]
  GI50: 25.5 µM
  TGI: 69.6 µM
[44]
  GI50: 15.2 µM
  TGI: 53.4 µM
[45]
  GI50: 24.8 µM
  TGI: 60.7 µM
[46]
  GI50: 25.9 µM
  TGI: > 100 µM
[47]
  GI50: 16.8 µM
  TGI: 35 µM
[48]
  GI50: 16.7 µM
  TGI: 32 µM
[49]
  GI50: 16.5 µM
  TGI: 30.1 µM
[50]
  GI50: 21.9 µM
  TGI: 49.7 µM
[51]
  GI50: 19.3 µM
  TGI: 44.4 µM
[52]
  GI50: 24.3 µM
  TGI: 78.6 µM
[53]
  GI50: 27.7 µM
  TGI: 80.1 µM
[54]
  GI50: 30 µM
  TGI: > 100 µM
[55]
  GI50: 27.1 µM
  TGI: > 100 µM
[56]
  GI50: 13.4 µM
  TGI: 29.7 µM
[57]
  GI50: 18.3 µM
  TGI: 42.4 µM
